Laboratory results reported in ChEMBL document CHEMBL6121062, “Discovery, Optimization, and Preclinical Pharmacology of EP652, a METTL3 Inhibitor with Efficacy in Liquid and Solid Tumor Models” (J Med Chem, 2025).

What was measured:
[1] = molecular target: METTL3/METTL14 (Homo sapiens, UniProt Q86U44); test: Displacement of [3H]-SAM from METTL3/METTL14 (unknown origin) using 5'biotinylated-UACACUCGAUCUGGACUAAAGGUGCUC-3' RNA as substrate preincubated for 10 mins followed by substrate/[3H]-SAM addition measured after 90 mins by SPA; type: protein-complex assay
METTL3/METTL14, sequence (Q86U44 whole entry): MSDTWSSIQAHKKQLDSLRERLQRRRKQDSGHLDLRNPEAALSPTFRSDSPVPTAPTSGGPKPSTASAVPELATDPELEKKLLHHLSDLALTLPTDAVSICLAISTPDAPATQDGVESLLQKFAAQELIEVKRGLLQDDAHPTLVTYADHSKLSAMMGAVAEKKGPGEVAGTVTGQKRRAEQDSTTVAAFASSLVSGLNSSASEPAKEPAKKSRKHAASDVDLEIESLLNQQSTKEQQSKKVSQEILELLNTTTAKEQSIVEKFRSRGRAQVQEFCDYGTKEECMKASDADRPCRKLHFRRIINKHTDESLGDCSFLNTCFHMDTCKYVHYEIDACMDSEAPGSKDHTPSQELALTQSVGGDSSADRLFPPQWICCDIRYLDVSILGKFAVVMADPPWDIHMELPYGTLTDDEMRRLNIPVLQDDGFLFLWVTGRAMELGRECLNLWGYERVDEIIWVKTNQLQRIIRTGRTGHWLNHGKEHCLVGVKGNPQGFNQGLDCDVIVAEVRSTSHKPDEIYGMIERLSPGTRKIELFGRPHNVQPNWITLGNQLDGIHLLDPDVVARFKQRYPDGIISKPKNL
METTL3/METTL14, sequence (Q9HCE5 whole entry, further chain): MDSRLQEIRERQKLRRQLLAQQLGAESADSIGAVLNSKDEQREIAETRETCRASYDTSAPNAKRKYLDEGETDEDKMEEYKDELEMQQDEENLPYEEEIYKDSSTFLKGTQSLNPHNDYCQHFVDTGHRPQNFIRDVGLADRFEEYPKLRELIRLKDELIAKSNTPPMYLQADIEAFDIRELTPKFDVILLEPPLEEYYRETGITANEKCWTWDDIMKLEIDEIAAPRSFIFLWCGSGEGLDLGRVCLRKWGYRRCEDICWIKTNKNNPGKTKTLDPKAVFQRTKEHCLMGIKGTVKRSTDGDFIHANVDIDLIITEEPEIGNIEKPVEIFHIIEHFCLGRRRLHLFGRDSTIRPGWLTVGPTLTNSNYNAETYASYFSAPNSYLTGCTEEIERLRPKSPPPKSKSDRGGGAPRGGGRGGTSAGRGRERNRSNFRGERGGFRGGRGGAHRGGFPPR

[2] = system: Kasumi 1; test: Antiproliferative activity against human Kasumi 1 cells assessed as inhibition of cell viability incubated for 72 hrs by ATPlite assay; type: functional, cell-based; settings: Kasumi 1, 72 h
[3] = Lipophilicity, logD of compound in 1-octanol/PBS at pH 7.4 incubated for 24 hrs by HPLC analysis; type: physicochemical
[4] = Unbound fraction in Sprague-Dawley rat plasma at 1 mg/kg/day, iv measured for 24 hrs by LC-MS/MS analysis; type: ADME, organism-based; settings: in vivo
[5] = Unbound clearance in Sprague-Dawley rat at 1 mg/kg/day, iv measured for 24 hrs by LC-MS/MS analysis; type: ADME, organism-based; settings: in vivo
[6] = Unbound AUC in Sprague-Dawley rat at 1 mg/kg/day, iv measured for 24 hrs by LC-MS/MS analysis; type: ADME, organism-based; settings: in vivo

Row | Structure (SMILES) | IC50 [1] [nM] | IC50 [2] [nM] | logD at 24 h [3] | Fu [4] [%] | CL free [5] [mL/min/kg] | fAUC [6] [µM·min]
1 | COc1cncc(-c2cn(Cc3ccc(N4CCC[C@@H](NCC5CCC5)C4)nn3)nn2)c1 | 6 | 1930 | 1.47 | 11.1 | 596 | 5.7
2 | COc1cncc(-c2cn(C(C)(C)c3ccc(N4CCC[C@@H](NCC5CCC5)C4)nn3)nn2)c1 | 6 | 2070 | 1.69 | 15.3 | 421 | 4.9
3 | COc1cc(-c2cn(C(C)n3ccc(N4CCC[C@@H](NCC5CCC5)C4)cc3=O)nn2)c2cn[nH]c2c1 (stereo partly specified) | 2 | 437 | 2.13 | – | 2269 | 0.9
4 | COc1cncc(-c2cn(Cc3ccc(N4CCC[C@@H](NCC5CCC5)C4)cn3)nn2)c1 | 4 | 894 | 1.21 | 8.9 | 934 | 2.4
5 | CC(n1cc(-c2cncc(N3CCCC3)c2)nn1)n1ccc(N2CCC[C@@H](NCC3CCC3)C2)cc1=O (stereo partly specified) | 2 | 7 | 2.49 | – | 1913 | 1
6 | CC(n1cc(-c2cncc(N(C)C)n2)nn1)n1ccc(N2CCC[C@@H](NCC3CC3)C2)cc1=O (stereo partly specified) | 1 | 96 | 1.17 | – | 369 | 5.2
7 | COc1cncc(-c2cn(C(C)c3ccc(N4CCC[C@@H](NCC5CCC5)C4)nn3)nn2)c1 (stereo partly specified) | 4 | 904 | 1.62 | 14 | 423 | 5.3
8 | COc1cncc(-c2cn(Cn3ccc(N4CCC[C@@H](NCC5CCC5)C4)cc3=O)nn2)c1 | 3 | 1100 | 1.51 | 9.3 | 854 | 2.7
9 | COc1cncc(-c2cn([C@H](C)n3ccc(N4CCC[C@@H](NCC5CCC5)C4)cc3=O)nn2)c1 | 2 | 489 | 1.5 | 17.4 | 645 | 3.8
10 | COc1cncc(-c2cn(C(C)c3ccc(N4CCC[C@@H](NCC5CCC5)C4)cn3)nn2)c1 (stereo partly specified) | 4 | 2100 | 1.65 | 14.1 | 263 | 10.9
11 | CCOc1cncc(-c2cn(C(C)n3ccc(N4CCC[C@@H](NCC5CCC5)C4)cc3=O)nn2)c1 (stereo partly specified) | 2 | 302 | 2.07 | – | 1112 | 2.1
12 | C[C@@H](n1cc(-c2cncc(N3CCCC3)n2)nn1)n1ccc(N2CCC[C@@H](NCC3CC3)C2)cc1=O | 1 | 13 | 1.6 | – | 443 | 4.7
13 | CC(n1cc(-c2cncc(N3CCCC3)c2)nn1)n1ccc(N2CCC[C@@H](NCC3CC3)C2)cc1=O (stereo partly specified) | 3 | 11 | 1.93 | – | 1487 | 1.3
14 | CCC(c1ccc(N2CCC[C@@H](NCC3CCC3)C2)nn1)n1cc(-c2cncc(OC)c2)nn1 (stereo partly specified) | 31 | 6000 | 1.9 | 11.2 | – | –
15 | COc1cncc(-c2cn(C(C)n3ccc(N4CCC[C@@H](NCC5CCC5)C4)cc3=O)nn2)n1 (stereo partly specified) | 3 | 656 | 1.65 | – | 413 | 6.1
